Measured values: US7858646B2, “Potentiators of glutamate receptors” (Eli Lilly and Company, priority 2004, dated 2010)

How the values were obtained:
human CysLT1 receptor = target: T1, human CysLT1 receptor (Homo sapiens, UniProt Q9Y271); assay: Antagonism of LTD4-induced increase in intracellular calcium within a CysLT1 receptor expressing cell line (FLIPR); format: cell-based; conditions: AV12-664 cells expressing human CysLT1; 6 nM LTD4; read-out: antagonism of CysLT1 receptors, IC50
T1 construct: expressed in transfected cells; host or cells: AV12-664 (ATCC-9595)
T1 sequence (Q9Y271 1-337): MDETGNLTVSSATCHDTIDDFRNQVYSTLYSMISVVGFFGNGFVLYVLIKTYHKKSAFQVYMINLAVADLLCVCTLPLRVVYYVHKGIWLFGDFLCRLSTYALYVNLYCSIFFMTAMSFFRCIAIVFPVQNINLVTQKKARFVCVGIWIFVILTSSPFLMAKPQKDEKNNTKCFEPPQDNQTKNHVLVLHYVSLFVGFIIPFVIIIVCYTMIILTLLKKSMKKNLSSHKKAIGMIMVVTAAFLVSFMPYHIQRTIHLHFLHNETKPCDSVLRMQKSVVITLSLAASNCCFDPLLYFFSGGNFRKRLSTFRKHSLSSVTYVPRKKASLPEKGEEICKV
Description: Antagonism of Cysteinyl-leukotriene D4 (LTD4)-Induced Increase in Intracellular Calcium within a Cysteinyl-Leukotriene 1 (CysLT1) Receptor Expressing Cell Line.
Cell lines expressing the human CysLT1 receptor [AV12-664 (ATCC-9595)] are derived and maintained in culture media: DMEM with 5% dialyzed fetal bovine serum, 1 mM glutamine, and 1 mM sodium pyruvate. Confluent cultures are passaged weekly. Intracellular calcium levels are monitored in the CysLT1-expressing cells with the addition of LTD4, with or without prior exposure to the compounds being tested as antagonists with a Fluorometric Imaging Plate Reader (FLIPR, Molecular Devices). The following buffer is used throughout as an assay buffer: Hanks Buffered Saline Solution without phenol red (GIBCO), with 10 mM HEPES pH 7.4. Cells that had been plated 48 hours prior at a density of 20-25,000 cells per well in a 96-well plate are loaded with a calcium-sensitive dye for 90 minutes at 25° C. Fluo-3 (2 mM in DMSO, Molecular Probes) is mixed with an equal volume of 10% pluronic acid in DMSO, and diluted to 8 μM in the buffer described above containing 10% fetal bovine serum to make the loading buffer. Following loading of the cells, the buffer is removed and replaced with assay buffer prior to drug addition and monitoring on the FLIPR for several minutes. The resulting signal from the addition of 6 nM LTD4 (provides approximately 90% of the maximal signal with 25 nM LTD4) is determined by taking the difference of the maximal fluorescent peak height minus the background fluorescence in each well and expressing the results as a percent of the signal seen without pretreatment of the test compound(s). Least squares curve fitting with a four-parameter equation is applied to the resulting dose-% inhibition curve to determine the resulting IC50 values.

human mGlu2 receptors = target: T2, human mGlu2 receptors (Homo sapiens, UniProt Q14416); assay: Potentiation of glutamate-induced increase in intracellular calcium with a mGlu2 expressing cell line (FLIPR); format: cell-based; conditions: RGT cells expressing human mGlu2 and Galpha15; with submaximal glutamate (e.g. 1 μM)
T2 construct: expressed in transfected cells; host or cells: RGT cells (co-transfected with rat GLAST, stably transfected with Galpha15)
T2 sequence (Q14416 19-872): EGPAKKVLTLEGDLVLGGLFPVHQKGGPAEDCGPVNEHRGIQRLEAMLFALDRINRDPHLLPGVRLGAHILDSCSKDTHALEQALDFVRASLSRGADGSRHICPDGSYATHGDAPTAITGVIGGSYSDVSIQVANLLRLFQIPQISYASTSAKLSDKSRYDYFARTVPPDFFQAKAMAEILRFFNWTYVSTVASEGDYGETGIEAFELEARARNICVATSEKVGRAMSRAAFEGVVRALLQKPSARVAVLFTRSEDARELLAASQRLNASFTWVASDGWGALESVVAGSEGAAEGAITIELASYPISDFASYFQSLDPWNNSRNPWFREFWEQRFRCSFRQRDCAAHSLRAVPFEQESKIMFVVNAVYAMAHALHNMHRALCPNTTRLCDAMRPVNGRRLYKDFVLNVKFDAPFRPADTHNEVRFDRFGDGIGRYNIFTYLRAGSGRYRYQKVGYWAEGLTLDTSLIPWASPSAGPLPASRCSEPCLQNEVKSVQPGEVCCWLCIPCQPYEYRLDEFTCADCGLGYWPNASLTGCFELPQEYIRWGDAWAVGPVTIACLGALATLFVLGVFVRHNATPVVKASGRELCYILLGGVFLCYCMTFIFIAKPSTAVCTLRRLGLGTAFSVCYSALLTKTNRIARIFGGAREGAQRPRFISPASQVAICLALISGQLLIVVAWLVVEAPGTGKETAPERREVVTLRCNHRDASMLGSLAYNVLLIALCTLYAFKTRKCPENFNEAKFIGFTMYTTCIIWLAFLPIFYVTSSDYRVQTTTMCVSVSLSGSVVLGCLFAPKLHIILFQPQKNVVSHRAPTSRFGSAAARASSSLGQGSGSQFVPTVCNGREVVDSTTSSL
Description: Potentiation of Glutamate-Induced Increase in Intracellular Calcium with a mGlu2 Expressing Cell Line.
Cell lines expressing human mGlu2 receptors are derived as previously described (Desai, Burnett, Mayne, Schoepp, Mol. Pharmacol. 48, 648-657, 1995) and cultured in DMEM with 5% dialyzed fetal bovine serum, 1 mM glutamine, 1 mM sodium pyruvate, 50 μg/mL Geneticin G418, and 0.2 mg/mL hygromycin B. Confluent cultures are passaged weekly. These cells are referred to as RGT cells for Rat Glutamate Transporter, and have been co-transfected with the glutamate/aspartate transporter GLAST. The RGT cell line expressing the mGlu2 receptors is stably transfected with the promiscuous G-protein, Galpha15 to change the signaling pathway to the mGlu2 receptor to one that could be easily measured through release of intracellular calcium. Thus, intracellular calcium levels are monitored before and after the addition of drugs on a Fluorometric Imaging Plate Reader (i.e. FLIPR, Molecular Devices). The following buffer is used throughout as an assay buffer: 10 mM KCl, 138 mM NaCl, 5 mM Ca Cl2, 1 mM MgC2, 4 mM Na H2PO4, 10 mM Glucose, 10 mM HEPES, pH 7.4. Cells that had been plated 48 hours prior at a density of 30-40,000 cells per well in a 96-well plate are loaded with a calcium-sensitive dye for 90 minutes at 25° C. Fluo-3 (2 mM in DMSO, Molecular Probes) are mixed with a equal volume of 10% pluronic acid in DMSO, and diluted to 8 μM into the buffer described above containing 10% fetal bovine serum to make the loading buffer. Following loading of the cells, the loading buffer is removed and replaced with assay buffer prior to drug addition and monitoring on the FLIPR. The resulting signal from the addition of compounds of formula (I) and submaximal concentrations of a glutamate-site agonist (e.g. 1 μM glutamate) is determined by taking the difference of the maximal fluorescent peak height minus the background fluorescence in each well and expressing the results as a percent of the signal seen with a maximal glutamate response (30 μM glutamate, typically about 30-50,000 Relative Fluorescent Units). Least squares curve fitting with a four-parameter equation is then applied to the resulting dose-% response curve to determine the resulting EC50 values.

| IC50 (human CysLT1 receptor) | EC50 (human mGlu2 receptors) | Structure (SMILES) |
| --- | --- | --- |
| < 150 nM | < 350 nM | CC(=O)c1ccc(OCc2ccc(Oc3cc(-c4nn[nH]n4)ccn3)cc2)c(C)c1O [Example 21, 1-(2-Hydroxy-3-methyl-4-{4-[4-(1H-tetrazol-5-yl)-pyridin-2-yloxy]-benzyloxy}-phenyl)-ethanone] |
|  | < 350 nM | CC(=O)c1ccc(OCc2ccc(Oc3cccc(-c4nn[nH]n4)c3)cc2)c(C)c1O [Example 22, 1-(2-Hydroxy-3-methyl-4-{4-[3-(1H-tetrazol-5-yl)-phenoxy]-benzyloxy}-phenyl)-ethanone] |
| < 150 nM | < 350 nM | CC(=O)c1ccc(OCc2cccc(Oc3cc(-c4nn[nH]n4)ccn3)c2)c(C(F)(F)F)c1O [Example 27, 1-(2-Hydroxy-4-{3-[4-(2H-tetrazol-5-yl)-pyridin-2-yloxy]-benzyloxy}-3-trifluoromethyl-phenyl)-ethanone] |
| < 150 nM | < 350 nM | CCCc1c(OCc2cccc(Sc3cc(C(=O)O)ccn3)c2)ccc(C(C)=O)c1O [Example 84, 6-(3-((4-acetyl-3-hydroxy-2-propylphenoxy)methyl)phenylthio)isonicotinic acid] |
